# Patent publication US20110172163A1, “Novel Protease Inhibitors” (QUEENSLAND UNIVERSITY OF TECHNOLOGY, priority 2008, published 2011)
# Values joined by “and” are separate entries in the source; they are usually repeats but may differ in a detail not shown here. Equal values may be shown once. Read-outs that look alike come from different tables or passages of the source. Bridge positions count the residues as written; N and C are the ends. Peptide text beside a SMILES is read from it.
# B1: KLK4 (Homo sapiens) (protein)
# chain: IINGEDCSPHSQPWQAALVMENELFCSGVLVHPQWVLSAAHCFQNSYTIGLGLHSLEADQEPGSQMVEASLSVRHPEYNRPLLANDLMLIKLDESVSESDTIRSISIASQCPTAGNSCLVSGWGLLANGRMPTVLQCVNVSVVSEEVCSKLYDPLYHPSMFCAGGGHDQKDSCNGDSGGPLICNGYLQGLVSFGKAPCGQVGVPGVYTNLCKFTEWIEKTVQAS
# notes: pro-region of PSA (KLK3), replacing the native KLK4 pro-region (only if the E. coli preparation was used) (N, cleaved yes); made in house
# Tests used:
# KLK4 [1] = target: T1, KLK4 (Homo sapiens, UniProt Q9Y5K2); experiment: Inhibitor kinetics: KLK4 amidolytic activity with peptide-pNA substrates; type: biochemical; design: pro-region of PSA (KLK3), replacing the native KLK4 pro-region (N, cleaved yes); made in house
# Protocol: (§1) Human recombinant KLK4 was expressed in E. coli using a previously described chimeric KLK4 plasmid construct where the native pro-region was replaced with the pro-region of PSA, enabling autoactivation. Protein was expressed as inclusion bodies which were isolated and solubilised as described previously to yield 90% pure KLK4. Protein refolding was performed by dilution into 100 volumes of refolding buffer I (2 M urea, 0.1M NaCl, 5 mM GSH, 0.5 mM GSSG, 10 mM benzamidine, 50 mM tris HCl pH 8.0, 2 mM CaCl2) over 44 hours before further dilution into 3 volumes refolding buffer II (refolding buffer I with 0.5 M urea 0.5 mM GSH, 0.05 mM GSSG, 2 mM CaCl2) over another 24 hours. Dialysis was performed as previously described (with additional 2 mM CaCl2 to reduce aggregation) before concentration using UNO sphere Q (Biorad) eluting with tris buffered saline (pH 7.5)/2 mM CaCl2. Subsequently, the material was purified to apparent homogeneity (according to coomassie blue stained SDS PAGE) by gel filtration using Sephacryl S-200 (GE Health Care) pre-equilibrated with 50 mM Tris-HCl pH 7.5, 20 mM NaCl and 2 mM CaCl2.
# All enzymes and substrates were obtained from Sigma Chemicals if not otherwise specified. Bacterially expressed human KLK4 (37 ng), bovine β-trypsin (20 ng), bovine thrombin (20 ng), bovine α-chymotrypsin (0.5 μg), protease (0.5 μg; Streptomyces griseus type XIV), bovine plasminogen (0.5 μg), and human matriptase (30 ng; R&D Systems) were incubated with various concentrations of inhibitors in 200 μL assay buffer for 10 minutes prior to initiation by the addition of 100 μL of 0.3 mM of peptide-pNA substrates (FVQR-pNA: KLK4; BAPNA: trypsin, (Streptomyces griseus Type XIV Protease and bovine plasma plasminogen); Bz-Phe-Val-Arg-pNA: thrombin and matriptase; Trp-pNA: α-chymotrypsin; Leu-pNA: (Streptomyces griseus Type XIV Protease and bovine plasma plasminogen). The release of pNa moiety was monitored as described above for 7 minutes with each point being the average of three independent triplicate reactions. IC50 was determined using the Prism 5 software suite (GraphPad software Inc.).
# Figure 3 (D) = experiment: Figure 3 (D)
# Protocol: Table printed on a drawing sheet, Figure 3 (D)
# The patent's description of the figure: FIG. 3. Stability of SFTI variants in contact with prostate cancer cells in vitro. Residual SFTI-FCQR was assayed in tissue culture supernatants from prostate cancer cells treated with a single dose of inhibitor at time =0. Stability was assessed against LNCaP (closed circles), 22RV1 (open circles) and PC3 cells (triangles) for (A) SFTI-FCQR, (B) SFTI-FCQR Asn14 and (C) SFTI-FCQR Lys14 as summarized in (D). Data represented as mean±SEM from three independent experiments in triplicates.
# First reader's note: Half-life of residual inhibitor activity in culture supernatants of prostate cancer cell lines, summarising panels (A)-(C).
# iKLK14 = target: T2, iKLK14 (Homo sapiens, UniProt Q9P0G3); experiment: Inhibitor kinetics: KLK14 amidolytic activity; type: biochemical
# T2 construct: made in house
# bovine thrombin = target: T3, bovine thrombin (Bos taurus, UniProt P00735); experiment: Inhibitor kinetics: thrombin amidolytic activity; type: biochemical; conditions: substrate Bz-FVR-pNA (0.2 mM); read-out: IC50
# T3 construct: purchased Sigma Chemicals
# Protocol: (§2) All enzymes and substrates were obtained from Sigma Chemicals if not otherwise specified. […] The release of pNa moiety was monitored as described above for 7 minutes with each point being the average of three independent triplicate reactions. IC50 was determined using the Prism 5 software suite (GraphPad software Inc.).
# [2] = Stability of SFTI variants in contact with prostate cancer cells in vitro; type: in vitro ADME; conditions: prostate cancer cell lines in serum containing medium
# Protocol: Cell monolayers of LNCaP, 22Rv1 and PC3 cells were established in RPMI 1640 medium containing 10% fetal calf serum. Each cell line was treated +/−1 μM SFTI-FCQR contained in 4.0 mL RPMI media (as above) with a vehicle control to account for inhibition by intrinsic media factors. 25 μL samples of media were taken at 0, 24, 48, 72, 96 and 120 hrs timepoints. Media samples were boiled at 97° C. for 15 min, centrifuged at 14,000 rpm for 5 min to remove cellular debris and precipitated protein. Residual SFTI-FCQR inhibitory activity in the medium was determined against recombinant KLK4 using FVQR-pNA as a peptide substrate as above using 15ng KLK4 and 30 nmol FVQR-pNA with 2.5 μL and […] of media+/−SFTI-FCQR added from each treatment.
# [3] = test system: protease (Streptomyces griseus type XIV); experiment: Inhibitor kinetics: Streptomyces griseus type XIV protease; type: biochemical; conditions: substrate L-pNA
# Protocol: as §2
# bovine β-trypsin = target: T4, bovine β-trypsin (Bos taurus, UniProt P00760); experiment: Inhibitor kinetics: trypsin amidolytic activity; type: biochemical; conditions: substrate BAPNA (0.2 mM)
# T4 construct: bovine β-trypsin (20 ng); purchased Sigma Chemicals
# T4 sequence (P00760 24-246): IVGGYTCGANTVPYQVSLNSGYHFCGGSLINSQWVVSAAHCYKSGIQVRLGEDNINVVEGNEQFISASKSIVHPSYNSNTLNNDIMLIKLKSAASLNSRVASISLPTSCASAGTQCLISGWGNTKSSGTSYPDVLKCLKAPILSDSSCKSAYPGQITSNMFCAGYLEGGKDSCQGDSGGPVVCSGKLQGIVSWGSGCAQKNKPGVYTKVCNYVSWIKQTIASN
# Protocol: as §2
# KLK12 = KLK12 (Homo sapiens, UniProt Q9UKR0); experiment: Protein proteolysis: fibrinogen digestion by KLK12; type: biochemical; conditions: at a concentration of 10000 nM
# bovine α-chymotrypsin = target: T5, bovine α-chymotrypsin (Bos taurus, UniProt P00766); experiment: Inhibitor kinetics: α-chymotrypsin amidolytic activity; type: biochemical; conditions: substrate W-pNA (0.2 mM); read-out: IC50
# T5 construct: purchased Sigma Chemicals
# Protocol: as §2
# human matriptase = target: T6, human matriptase (Homo sapiens, UniProt Q9Y5Y6); experiment: Inhibitor kinetics: matriptase amidolytic activity; type: biochemical; conditions: substrate Bz-FVR-pNA (0.2 mM); read-out: IC50
# T6 construct: purchased R&D Systems
# T6 sequence (Q9Y5Y6 615-855 limits assumed): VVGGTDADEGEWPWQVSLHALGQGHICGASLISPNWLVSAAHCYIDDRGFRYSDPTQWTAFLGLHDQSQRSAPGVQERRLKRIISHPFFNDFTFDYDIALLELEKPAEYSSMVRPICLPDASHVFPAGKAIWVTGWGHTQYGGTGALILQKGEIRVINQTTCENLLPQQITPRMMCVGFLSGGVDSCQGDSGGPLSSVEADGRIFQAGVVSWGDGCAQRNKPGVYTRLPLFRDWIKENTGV
# Protocol: as §2
# KLK14 = KLK14 (Homo sapiens, UniProt Q9P0G3); experiment: Protein proteolysis: fibrinogen digestion by KLK14; type: biochemical; conditions: at a concentration of 10000 nM
# Thrombin = conditions: cited from earlier work
# KLK4 [4] = target: T1, KLK4; experiment: Protein proteolysis: fibrinogen digestion by KLK4 (SDS-PAGE); type: biochemical; design: pro-region of PSA (KLK3), replacing the native KLK4 pro-region (only if the E. coli preparation was used) (N, cleaved yes); made in house; conditions: inhibitor at 2 μM
# Protocol: (§3) Fibrinogen was solubilised in assay buffer to a final concentration of 1 mg/ml and digested with KLK4 (+/−inhibitor) over a period of 90 minutes at 37° C. Typically assays consisted of 5 μM protein substrate and 2.5 nM KLK4 protein or 1 nM trypsin made up to a final volume of 8 μl with assay buffer. Proteolysis was initiated by addition of KLK4 and terminated by addition of SDS PAGE sample buffer and heat denaturation at 100° C. for 5 minutes. Hydrolysis products were resolved on 10% SDS PAGE gels and compared with incubations terminated immediately after initiation (time 0), and substrate proteins incubated in assay buffer for 90 minutes in the absence of KLK4 or 4-16 mins with trypsin.
# trypsin = target: T7, trypsin (Bos taurus, UniProt P00760); experiment: Protein proteolysis: fibrinogen digestion by trypsin (SDS-PAGE); type: biochemical, bovine; conditions: SDS-PAGE
# T7 construct: purchased Sigma Chemicals
# Protocol: as §3
# [5] = substrate: CSCC[C@H](NC(=O)[C@@H](NC(=O)[C@@H](N)Cc1ccccc1)C(C)C)C(=O)N[C@@H](CCCNC(=N)N)C(=O)Nc1ccc([N+](=O)[O-])cc1; experiment: Kinetic studies of para-nitroanilide substrates with KLK4; type: biochemical, human; conditions: other: para-Nitroanilide substrate
# Protocol: as §1
# (§4) Kinetic Studies Active site titration was carried out according to Beynon et al., replacing α1-proteinase inhibitor with soybean trypsin inhibitor. Enzymatic activity assays were performed with 4.9 nM KLK4 and substrate concentrations in the range of 0-600 μM in 300 μL of assay buffer with hydrolysis monitored over 5 minutes as described for the substrate screen. The data was fitted to the Michaelis-Menten equation by […] analysis using the Prism 5 software suite (GraphPad Software Inc.).
# [6] = substrate: CC(C)[C@H](NC(=O)[C@H](Cc1ccccc1)NC(=O)c1ccccc1)C(=O)N[C@@H](CCCNC(=N)N)C(=O)Nc1ccc([N+](=O)[O-])cc1; experiment: as above; type: biochemical, human; conditions: other: para-Nitroanilide substrate
# Protocol: as §1, §4
# [7] = substrate: CC(=O)N[C@@H](Cc1ccccc1)C(=O)N[C@H](C(=O)N[C@@H](CCCNC(=N)N)C(=O)Nc1ccc([N+](=O)[O-])cc1)C(C)C; experiment: as above; type: biochemical, human; conditions: other: para-Nitroanilide substrate
# Protocol: as §1, §4
# [8] = substrate FVQR-pNA (0.2 mM), read-out: IC50
# T2 sequence (Q9P0G3 41-267): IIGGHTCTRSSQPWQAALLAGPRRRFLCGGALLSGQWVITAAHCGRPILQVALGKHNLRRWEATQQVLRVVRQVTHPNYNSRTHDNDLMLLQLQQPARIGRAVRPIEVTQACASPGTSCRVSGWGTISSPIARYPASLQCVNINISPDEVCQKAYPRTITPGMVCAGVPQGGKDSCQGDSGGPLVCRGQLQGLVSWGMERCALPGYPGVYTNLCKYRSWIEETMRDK
# T7 sequence (P00760 18-246 limits assumed): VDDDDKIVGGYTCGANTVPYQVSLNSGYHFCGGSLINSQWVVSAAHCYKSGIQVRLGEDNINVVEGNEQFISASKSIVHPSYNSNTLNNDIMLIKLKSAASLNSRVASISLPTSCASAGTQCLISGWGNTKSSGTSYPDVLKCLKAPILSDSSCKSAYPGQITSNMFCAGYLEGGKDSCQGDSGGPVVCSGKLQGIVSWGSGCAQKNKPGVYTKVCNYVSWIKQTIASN
# Sequence of KLK12 (Q9UKR0 18-248): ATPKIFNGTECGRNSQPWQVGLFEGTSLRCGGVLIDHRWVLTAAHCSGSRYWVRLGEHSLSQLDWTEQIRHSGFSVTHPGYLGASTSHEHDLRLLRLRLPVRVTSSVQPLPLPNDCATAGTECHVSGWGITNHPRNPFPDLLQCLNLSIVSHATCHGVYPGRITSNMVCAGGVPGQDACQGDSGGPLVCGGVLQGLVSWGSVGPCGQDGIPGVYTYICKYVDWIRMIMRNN
# Sequence of KLK14 (Q9P0G3 35-267 limits assumed): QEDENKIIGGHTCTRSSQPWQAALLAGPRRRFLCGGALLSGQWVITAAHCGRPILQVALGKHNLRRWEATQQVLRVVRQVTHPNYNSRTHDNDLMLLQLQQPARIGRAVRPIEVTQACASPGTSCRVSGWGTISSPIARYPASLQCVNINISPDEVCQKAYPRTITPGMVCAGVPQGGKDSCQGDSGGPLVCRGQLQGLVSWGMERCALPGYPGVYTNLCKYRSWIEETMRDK
molecule,measurement,setting,value
CC[C@H](C)[C@@H]1NC(=O)[C@H](C)NC(=O)[C@@H]2CCCN2C(=O)[C@H]([C@@H](C)CC)NC(=O)[C@H](CO)NC(=O)[C@H](CCCNC(=N)N)NC(=O)[C@H](CCC(N)=O)NC(=O)[C@@H]2CSSC[C@H](NC1=O)C(=O)N[C@@H](Cc1ccccc1)C(=O)N1CCC[C@H]1C(=O)N[C@@H](CC(=O)O)C(=O)NCC(=O)N[C@@H](Cc1ccccc1)C(=O)N2 [SFTI-FCQR Ala9] (cyclo(AICFPDGFCQRSIP); disulfide 3-9),IC50,KLK4 [1]; [8],1140 ± 76 nM
CC[C@H](C)[C@@H]1NC(=O)[C@@H]2CCCN2C(=O)[C@@H]2CCCN2C(=O)[C@H]([C@@H](C)CC)NC(=O)[C@H](CO)NC(=O)[C@H](CCCNC(=N)N)NC(=O)[C@H](CCC(N)=O)NC(=O)[C@@H]2CSSC[C@H](NC1=O)C(=O)N[C@@H](Cc1ccccc1)C(=O)N1CCC[C@H]1C(=O)N[C@@H](CC(N)=O)C(=O)NCC(=O)N[C@@H](Cc1ccccc1)C(=O)N2 [SFTI-FCQR Asn14] (cyclo(GFCQRSIPPICFPN); disulfide 3-11),Half-life,Figure 3 (D),70 h
same,IC50,iKLK14,251 ± 6.65 nM
same,IC50,bovine thrombin,> 10000 nM
same,IC50,KLK4 [1],0.063 ± 0.002 nM
same,half life of inhibition (in words),[2],in the order of days
same,IC50,[3],> 10000 nM
same,IC50,bovine β-trypsin; read-out: IC50,2580 ± 508 nM
same,inhibition of KLK12 digestion of fibrinogen,KLK12,did not inhibit
same,IC50,bovine α-chymotrypsin,> 10000 nM
same,IC50,human matriptase,> 10000 nM
same,inhibition of KLK14 digestion of fibrinogen,KLK14,did not inhibit
"Sunflower trypsin inhibitor [SFTI-1, reference compound]",Ki,"Thrombin; substrate N-t-Boc-LRR-AMC, Long et al. 2001",5050 nM
same,Ki,"Thrombin; substrate Unknown, Luckett et al. 1999",136 nM
same,inhibition of fibrinogen proteolysis by KLK4,KLK4 [4],no inhibition
same,concentration that completely inhibits trypsin digestion of fibrinogen,trypsin,31.25 nM
CC[C@H](C)[C@@H]1NC(=O)[C@@H]2CCCN2C(=O)[C@@H]2CCCN2C(=O)[C@H]([C@@H](C)CC)NC(=O)[C@H](CO)NC(=O)[C@H](CCCNC(=N)N)NC(=O)[C@H](CCC(N)=O)NC(=O)[C@@H]2CSSC[C@H](NC1=O)C(=O)N[C@@H](Cc1ccccc1)C(=O)N1CCC[C@H]1C(=O)N[C@@H](CCCCN)C(=O)NCC(=O)N[C@@H](Cc1ccccc1)C(=O)N2 [SFTI-FCQR Lys14] (cyclo(GFCQRSIPPICFPK); disulfide 3-11),Half-life,Figure 3 (D),9 h and 10 h
same,IC50,bovine thrombin,> 10000 nM
same,IC50 against KLK4 compared with SFTI-FCQR Asn14,KLK4 [1]; substrate FVQR-pNA,nearly three orders of magnitude higher
same,IC50,KLK4 [1]; [8],98.9 ± 4.09 nM
same,half life of inhibition (in words),[2],curtailed half life
same,IC50,[3],> 10000 nM
same,IC50,bovine β-trypsin,Inhibitor degraded
same,IC50,bovine α-chymotrypsin,> 10000 nM
same,IC50,human matriptase,> 10000 nM
B1,Km,[5],74.7 ± 10.3 µM
same,Km,[6],42.5 ± 5.9 µM
same,kcat,[6],0.57 ± 0.031 s⁻¹
same,kcat/Km,[6],13400 ± 1500 M⁻¹ s⁻¹
same,Km,[7],194.9 ± 41.4 µM
same,kcat,[7],0.3 ± 0.032 s⁻¹
same,kcat/Km,[7],1540 ± 240 M⁻¹ s⁻¹
